{"source": "paper PMC9433906", "about": "“Evaluation of the biotechnological potential of peptide Cupiennin 1a and analogs” (Frontiers in Microbiology, 2022)", "key": {"[1]": {"test_system": "C. parapsilosis (ATCC22019)", "assay": "Broth microdilution MIC (CLSI M27-A3 with modifications)", "format": "cell-based, Candida parapsilosis", "conditions": "2.5 × 10^3 CFU.ml^−1, Sabouraud medium, 24 h at 30°C, absorbance 595 nm", "protocol": "The broth microdilution method was performed according to the Clinical and Laboratory Standards Institute Guideline M27-A3 with modifications to determine the Minimum Inhibitory Concentration (MIC; [Clinical Laboratory Standards Institute, 2008]).\nInitially, the fungus C. parapsilosis (ATCC22019) was grown in a Petri dish containing Sabouraud Dextrose Agar medium (Dextrose 40 g/L; Peptic digestion of animal tissue 5.0 g.L^−1; and Agar 15 g.L^−1) for 48 h. Subsequently, a pre-inoculum was performed from a yeast colony that was placed in 10 ml of liquid Sabouraud medium and incubated for 16 h at 28°C, with a constant rotation of 200 rpm. After the incubation period, 2.5 × 10^3 CFU.ml^−1 of fungus per well was incubated with different peptide micromolar concentrations (Table 1) to assess the MIC for each peptide.\nFungal cells incubated with Sabouraud medium were used as negative control, while positive control was represented by fungal cells incubated in Sabouraud medium and amphotericin B (10 μM). Subsequently, plates were incubated for 24 h at 30°C. After this period, the absorbance was read (595 nm) in a BioTek spectrophotometer (PowerWaveTM HT Microplate Reader), and data of antifungal activity with percentage of inhibition of peptides were plotted in GraphPad Prism 8 Software."}, "[2]": {"test_system": "K. pneumoniae (ATCC 13883)", "format": "cell-based, Klebsiella pneumoniae", "conditions": "K. pneumoniae (ATCC13883); 5×10^5 CFU.ml^−1, Mueller-Hinton Broth, 37°C, 24 h, OD 595 nm, biological triplicates", "protocol": "(§1) Susceptibility tests were performed using clinical isolates of Klebsiella pneumoniae carbapenemase (KPC 1410503) and methicillin-resistant S. aureus (MRSA 3730592). Tests were also performed with ATCC (American Type Culture Collection) isolates of K. pneumoniae (ATCC 13883) and S. aureus (ATCC 25923).\n(§2) Two multidrug-resistant clinical isolates and two ATCC isolates were chosen to perform microbial susceptibility testing as models for studies with bacteria susceptible to antimicrobials found in the Gram-Positive and Gram-Negative groups of bacteria.\n(§3) The broth microdilution method was performed according to the Clinical and Laboratory Standards Institute (CLSI) M07-A10 protocol to determine the Minimum Inhibitory Concentration (MIC; [Clinical Laboratory Standards Institute, 2015]). The assay was performed on 96-well microplates (TPP, United States), containing 5×10^5 CFU.ml^−1 of each tested bacterium per well and different peptide micromolar concentrations (Table 1) in a final volume of 100 μl of Mueller-Hinton Broth (MH). Negative control was represented by bacteria incubated in MH medium, while positive control was represented by culture incubated in MH medium with Amikacin. Plates were kept under agitation at 37°C in a BioTek spectrophotometer (PowerWaveTM HT Microplate Reader) with optical density (OD) readings at 595 nm every 30 min for 24 h. Inhibition results were analyzed using GraphPad Prism 8 software by comparing the OD from negative control wells (100%) to those containing peptides. All tests were performed in biological triplicates."}, "[3]": {"test_system": "Klebsiella pneumoniae carbapenemase (KPC 1410503)", "format": "cell-based", "conditions": "K. pneumoniae carbapenemase—KPC clinical isolate 1410503; 5×10^5 CFU.ml^−1, Mueller-Hinton Broth, 37°C, 24 h, OD 595 nm, biological triplicates; NE = MIC value not found", "protocol": "as §1, §2, §3"}, "RAW 264.7 cells": {"test_system": "RAW 264.7 cells", "assay": "MTT cytotoxicity test against RAW 264.7", "format": "cell-based, mice", "conditions": "24 h", "protocol": "The cell line RAW 264.7 was obtained from the Rio de Janeiro Cell Bank (CR108). These cells are macrophages derived from induced tumors in male BALB/c mice infected with Abelson’s murine leukemia virus ([Raschke et al., 1978]). RAW264.7 cells were grown in DMEM medium (Dulbecco’s Modified Eagle’s medium, composed of CaCl2 (anhydrous) 200 mg.ml^−1, Fe(NO3).9H2O 0.1 mg.ml^−1, KCL 400 mg.ml^−1, MgSO4 (anhydrous) 97.67 mg.ml^−1, NaCL 6.400 mg.ml^−1, NaH2PO4.H2O 125 mg.ml^−1) supplemented with 10% (v/v) of bovine fetal serum, 0.5% (v/v) of DMEM amino acid solution, 0.05% (w/v) gentamicin, 0.5% (w/v) of L-glutamine, and 0.5% (w/v) of penicillin/streptomycin (1,000 U.ml^−1) in an incubator containing 5% CO2, at 37°C, and 95% humidity ([Raschke et al., 1978]; [Nguyen et al., 2017]).\nRAW 264.7 cells were seeded in 96-well plates, at a concentration of 10^4 cells/well, and incubated for 24 h. Each peptide was subsequently added at different micromolar concentrations (Table 1). Positive control was performed by cells in culture medium and negative control, as cell culture in lysis solution (10 mM Tris, 1 mM EDTA, and 0.1% Triton X-100, pH 7.4).\nCell viability analyses were performed in technical and biological replicates, and readings were obtained after 24 h of contact with peptides. At the end of the incubation period, MTT (Sigma-Aldrich, United States) was used to assess the ability of living cells to reduce salt 3-[4,5-dimethylthiazole-2-yl]-2,5-diphenyltetrazolium bromide for formazan production. Plates were read at 570 ηm ([Mosmann, 1983]) and results were expressed in the percentage of living cells. The results were analyzed using GraphPad Prism 8 software where a One-Way ANOVA statistical test was followed by Bonferroni’s multiple comparisons test."}, "[4]": {"test_system": "Spodoptera frugiperda (SF21) cells", "assay": "In vitro test against insect cells (MTT)", "format": "cell-based", "conditions": "lowest concentration tested (1 μM), 24 h", "protocol": "To evaluate the ability of the peptides to cause lysis and morphological changes in insect cells ([Dutra, 2019]; Patent: BR 102022 006138 6) as a first screening of the insecticidal activity of the peptides, in this work, the Spodoptera IPLB-SF-21AE _LVI-Cenargen cell line ([Vaughn et al., 1977]) was used and different concentrations of the peptides were added to the culture medium.\nCells were maintained at 27°C in TNMFH medium (Grace’s insect medium supplemented with lactalbumin hydrolyzate and yeastolate), supplemented with 10% (v/v) fetal bovine serum (Sigma-Aldrich; [Castro et al., 2006]).\nCell cultivation was carried out in 10 ml culture bottles, model K11-1050 25cm^2, with 5 ml of culture medium per bottle. For the assays, the SF21 cells were grown in TNMFH medium, added 10% (v/v) of bovine fetal serum, and distributed in plates of 96 wells at the concentration of 2×10^4 cells per well, after counting was performed in the Neubauer chamber. Cell suspension was distributed in a volume of 100 μl per well. Peptides were diluted in TNMFH medium and 100 μl of medium with peptide was added, obtaining concentrations of 10, 5, and 1 μM, reaching the volume of 200 μl at the final concentrations of reaction per well. Cells were placed in incubation at 27°C, for 24 h.\nAfter 24 h, the cells were analyzed for their modifications, morphological alterations, turbidity of the medium, formation of clumps, and/or lysis in the presence of peptides, by observation under optical microscopy (Nikon Eclipse TS100) with 20× and 40× magnification. Characteristics that could represent cell death or cell dysfunction caused by the peptides were observed compared to control cells. Cells were evaluated by cell viability using the MTT test 3-[4,5-dimethylthiazole-2-yl]-2,5-diphenyltetrazolium bromide 0.5 mg.ml^−1 (Sigma-Aldrich). To perform the test, the cell culture medium was discarded, and we added 100 μl of new medium. Ten μl of MTT was added to each well and incubated for 4 h, with the plates protected from light. After 4 h, we added 100 μl of DMSO to each well to dissolve the formazan crystals, and the reading in the microplate reader ([Riss et al., 2016]) was then performed. The results were analyzed using GraphPad Prism 8 software, where a One-Way ANOVA statistical test was followed by Bonferroni’s multiple comparisons test."}, "S. aureus (ATCC 25923)": {"test_system": "S. aureus (ATCC 25923)", "format": "cell-based, Staphylococcus aureus", "conditions": "S. aureus (ATCC25923); 5×10^5 CFU.ml^−1, Mueller-Hinton Broth, 37°C, 24 h, OD 595 nm, biological triplicates", "protocol": "as §1, §2, §3"}, "[5]": {"test_system": "methicillin-resistant S. aureus (MRSA 3730592)", "format": "cell-based, Staphylococcus aureus", "conditions": "Methicillin-Resistant S. aureus—MRSA clinical isolate 3730592; 5×10^5 CFU.ml^−1, Mueller-Hinton Broth, 37°C, 24 h, OD 595 nm, biological triplicates", "protocol": "as §1, §2, §3"}}, "note": "Where a SMILES comes first, the peptide text is derived from it.", "data": [{"smiles": "CC(C)C[C@H](NC(=O)[C@H](C)NC(=O)CNC(=O)[C@H](Cc1ccccc1)NC(=O)CN)C(=O)N[C@@H](Cc1ccccc1)C(=O)N[C@@H](CCCCN)C(=O)N[C@@H](Cc1ccccc1)C(=O)N[C@@H](CC(C)C)C(=O)N[C@@H](C)C(=O)N[C@@H](CCCCN)C(=O)N[C@@H](CCCCN)C(=O)N[C@H](C(=O)N[C@@H](C)C(=O)N[C@@H](CCCCN)C(=O)N[C@@H](C)C(=O)N[C@H](C(=O)N[C@@H](C)C(N)=O)C(C)C)C(C)C", "note": "[Peptide R2b] (H-GFGALFKFLAKKVAKAVA-NH2)", "values": [{"measurement": "Minimum inhibitory concentration (MIC)", "setting": "[1]", "value": 34.31, "unit": "µM"}, {"measurement": "Minimum inhibitory concentration (MIC)", "setting": "[2]", "value": 17.15, "unit": "µM"}, {"measurement": "Minimum inhibitory concentration (MIC)", "setting": "[3]", "value": 34.31, "unit": "µM"}, {"measurement": "cell viability (RAW264.7) in the MIC found for MRSA3730592, S. aureus ATCC25923, K. pneumoniae ATCC13883", "setting": "RAW 264.7 cells; at the MIC of R2b for these strains (17.15 μM in Table 3)", "value": "above 50%"}, {"measurement": "toxicity against RAW264.7 cells (in words)", "setting": "RAW 264.7 cells; tested concentrations of Table 1 (128–16 μg.ml^−1)", "value": "high toxicity"}, {"measurement": "cell viability (SF21)", "setting": "[4]", "value": "below 50%"}, {"measurement": "Minimum inhibitory concentration (MIC)", "setting": "S. aureus (ATCC 25923)", "value": 17.15, "unit": "µM"}, {"measurement": "Minimum inhibitory concentration (MIC)", "setting": "[5]", "value": 17.15, "unit": "µM"}]}, {"smiles": "CC(C)C[C@H](NC(=O)[C@H](C)NC(=O)CNC(=O)[C@H](Cc1ccccc1)NC(=O)CN)C(=O)N[C@@H](Cc1ccccc1)C(=O)N[C@@H](CCCCN)C(=O)N[C@@H](Cc1ccccc1)C(=O)N[C@@H](CC(C)C)C(=O)N[C@@H](C)C(=O)N[C@@H](CCCCN)C(=O)N[C@@H](CCCCN)C(=O)N[C@H](C(=O)N[C@@H](C)C(=O)N[C@@H](CCCCN)C(=O)N[C@H](C(=O)N[C@H](C(=O)N[C@@H](C)C(N)=O)C(C)C)[C@@H](C)O)C(C)C", "note": "[Peptide R1b] (H-GFGALFKFLAKKVAKTVA-NH2)", "values": [{"measurement": "Minimum inhibitory concentration (MIC)", "setting": "[1]", "value": 16.88, "unit": "µM"}, {"measurement": "Minimum inhibitory concentration (MIC)", "setting": "[2]", "value": 33.77, "unit": "µM"}, {"measurement": "Minimum inhibitory concentration (MIC)", "setting": "[3]", "value": 67.54, "unit": "µM"}, {"measurement": "viable cells (RAW264.7)", "setting": "RAW 264.7 cells; 33.77 μM", "value": 58, "unit": "%"}, {"measurement": "toxicity to RAW264.7 cells at the MIC concentration (in words)", "setting": "RAW 264.7 cells; R1b: MIC found for KPC1410503, R3b: MIC at high concentrations against all tested microorganisms", "value": "high toxicity"}, {"measurement": "Minimum inhibitory concentration (MIC)", "setting": "S. aureus (ATCC 25923)", "value": 33.77, "unit": "µM"}, {"measurement": "Minimum inhibitory concentration (MIC)", "setting": "[5]", "value": 33.77, "unit": "µM"}]}, {"smiles": "CC(C)C[C@H](NC(=O)[C@H](C)NC(=O)CNC(=O)[C@H](Cc1ccccc1)NC(=O)CN)C(=O)N[C@@H](Cc1ccccc1)C(=O)N[C@@H](CCCCN)C(=O)N[C@@H](Cc1ccccc1)C(=O)N[C@@H](CC(C)C)C(=O)N[C@@H](C)C(=O)N[C@@H](CCCCN)C(=O)N[C@@H](CCCCN)C(=O)N[C@H](C(=O)N[C@@H](C)C(=O)N[C@@H](CCCCN)C(=O)N[C@H](C(=O)N[C@H](C(=O)N[C@@H](C)C(=O)N[C@@H](CCCCN)C(N)=O)C(C)C)[C@@H](C)O)C(C)C", "note": "[Peptide R1a] (H-GFGALFKFLAKKVAKTVAK-NH2)", "values": [{"measurement": "Minimum inhibitory concentration (MIC)", "setting": "[1]", "value": 15.81, "unit": "µM"}, {"measurement": "Minimum inhibitory concentration (MIC)", "setting": "[2]", "value": 31.63, "unit": "µM"}, {"measurement": "viable cells (RAW264.7) in the MIC found for MRSA, S. aureus ATCC25923 and C. parapsilosis ATCC22019", "setting": "RAW 264.7 cells; at the MIC of R1a for these strains (15.81 μM in Table 3)", "value": 63, "unit": "%"}, {"measurement": "toxicity on RAW264.7 macrophages in the concentration range of 33.77 μM (in words)", "setting": "RAW 264.7 cells; concentration range of 33.77 μM", "value": "high toxicity"}, {"measurement": "Minimum inhibitory concentration (MIC)", "setting": "S. aureus (ATCC 25923)", "value": 15.81, "unit": "µM"}, {"measurement": "Minimum inhibitory concentration (MIC)", "setting": "[5]", "value": 15.81, "unit": "µM"}]}]}
